From patent US20200055817A1 (AbbVie Deutschland GmbH & Co. KG, priority 2016, published 2020)

Key:
Type in all cases: cell-based
[1] = molecular target: T1, human EDG1 (S1PR1) receptor (Homo sapiens, UniProt P21453); assay: Aequorin assay, agonist potency, CHO-A21-Edg1#17 cells; conditions: agonist mode, aequorin luminescence; read-out: S1P1 EC50
T1 construct: expressed in transfected cells; host or cells: CHO-A21-Edg1#17 (CHO clone co-expressing mitochondrial aequorin and chimaeric Gaqi5)
Protocol: (§1) Agonistic activity was measured as described below.
(§2) Cell clone CHO-A21-Edg1#17 carries the transgenes human EDG1 (S1PR1) receptor (Accession number NP_001391.2), mitochondrially targeted Aequorin (active part corresponds to accession number 1SL8_A) and chimaeric Gaqi5=Gaq modified with the 5 C-terminal amino-acids replaced with those of the Gai protein (DCGLF). CHO-A2-S1P3 Mix is a cell pool ectopically expressing human EDG3 (S1PR3) receptor (Accession number NP_005217.2) mitochondrially targeted Aequorin (active part has a sequence similar to accession number AY601106.1) and GNA16 (Accession number NP_002059.3). Cell clone CHO-A21-EDG8#12 carries the transgenes human EDG8 (S1PR5) receptor (Acession number NP_110387.1), mitochondrially expressed Aequorin (active part corresponds to accession number 1SL8_A) and chimaeric Gaqi5 (Gaq modified to present the 5 last amino-acids of the Gai protein “DCGLF”; see above). Cells are grown to mid-log phase in culture medium (HAM's F12, 10% FBS, 100 IU/mL penicillin, 100 μg/mL streptomycin, 250 μg/mL Zeocin, 400 μg/mL G418). 18 hours prior to frozen cells preparation, the medium is changed to remove the antibiotics.
(§3) 18 hours prior to the test, vials of frozen cells are quickly thawed in a 37° C. water bath, cells are recovered by centrifugation and resuspended in assay buffer (DMEM/HAM's F12 with HEPES, without phenol red+0.1% fatty acid-free BSA). Cells are gently agitated in suspension overnight at RT in presence of 5 μM of Coelenterazine h (Molecular Probes). On the day of the test, cells are diluted to their final working concentrations in assay buffer and agitated in suspension for 1 h at RT. Cells are then placed in the luminescence reader (Hamamatsu Functional Drug Screening System 6000, FDSS6000). During cells incubation, compounds are prepared in 100% DMSO, and subsequently diluted in assay buffer. Compounds are then dispensed in the assay plate (black, clear-bottom, 384-well plate). After binding of agonists to the human S1P receptor the intracellular calcium concentration increases and binding of calcium to the Aequorin/Coelenterazine complex leads to an oxidation reaction of coelenterazine, which results in the production of Aequorin, coelenteramide, CO2 and light (Dmax 469 nm). The luminescent response is dependent on the agonist concentration. For agonist testing, 30 μL of cell suspension are injected on 30 μL of test compound or reference agonist in the assay plate. The resulting emission of light is recorded for 90 seconds using the FDSS6000. Dose response curves with the reference compounds are performed before testing the compounds. S1P is the reference agonist and JTE-013 the reference antagonist for S1P2.
(§4) Luminescence data are integrated over the reading interval for agonist and antagonist modes. To standardize the emission of recorded light (determination of the “100% signal”) across plates and across different experiments, some of the wells contain 100 μM digitonin or a saturating concentration of ATP (20 μM). Plates also contain the reference agonist at a concentration equivalent to the EC80 obtained during the test validation and the EC100. Dose-response data from test compounds were analyzed with XLfit (IDBS) software using nonlinear regression applied to a sigmoidal dose-response model and the following equation: […]

[2] = molecular target: T2, S1P4 (Homo sapiens, UniProt O95977); assay: Aequorin assay, agonist potency, S1P4; conditions: agonist mode, aequorin luminescence
T2 sequence (O95977 1-384): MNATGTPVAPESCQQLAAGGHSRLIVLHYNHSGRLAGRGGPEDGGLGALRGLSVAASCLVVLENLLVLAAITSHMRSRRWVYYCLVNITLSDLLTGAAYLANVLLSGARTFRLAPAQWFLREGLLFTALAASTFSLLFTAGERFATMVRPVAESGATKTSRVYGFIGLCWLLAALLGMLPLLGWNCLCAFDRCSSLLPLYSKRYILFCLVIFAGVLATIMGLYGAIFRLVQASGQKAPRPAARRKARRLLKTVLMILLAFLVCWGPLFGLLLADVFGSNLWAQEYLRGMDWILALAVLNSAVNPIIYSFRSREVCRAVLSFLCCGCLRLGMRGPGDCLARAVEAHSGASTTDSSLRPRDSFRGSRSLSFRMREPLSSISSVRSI
Protocol: as §1, §3, §4

[3] = molecular target: T3, human EDG8 (S1PR5) receptor (Homo sapiens, UniProt Q9H228); assay: Aequorin assay, agonist potency, CHO-A21-EDG8#12 cells; conditions: agonist mode, aequorin luminescence; read-out: S1P5 EC50 range #
T3 construct: carries the transgenes human EDG8 (S1PR5) receptor (Acession number NP_110387.1); expressed in transfected cells; host or cells: CHO-A21-EDG8#12 (CHO clone co-expressing mitochondrial aequorin and chimaeric Gaqi5)
Protocol: as §1, §2, §3, §4

T1 sequence (P21453 whole entry): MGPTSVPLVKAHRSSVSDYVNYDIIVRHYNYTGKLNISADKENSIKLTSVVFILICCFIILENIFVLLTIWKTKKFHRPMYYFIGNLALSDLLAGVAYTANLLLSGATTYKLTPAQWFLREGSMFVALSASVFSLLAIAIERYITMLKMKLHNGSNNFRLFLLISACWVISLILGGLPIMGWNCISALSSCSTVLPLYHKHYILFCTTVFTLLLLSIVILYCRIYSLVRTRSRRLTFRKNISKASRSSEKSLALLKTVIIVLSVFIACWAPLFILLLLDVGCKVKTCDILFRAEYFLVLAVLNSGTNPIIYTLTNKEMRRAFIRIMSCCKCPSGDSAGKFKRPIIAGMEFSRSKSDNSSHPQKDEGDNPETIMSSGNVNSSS
T3 sequence (Q9H228 whole entry): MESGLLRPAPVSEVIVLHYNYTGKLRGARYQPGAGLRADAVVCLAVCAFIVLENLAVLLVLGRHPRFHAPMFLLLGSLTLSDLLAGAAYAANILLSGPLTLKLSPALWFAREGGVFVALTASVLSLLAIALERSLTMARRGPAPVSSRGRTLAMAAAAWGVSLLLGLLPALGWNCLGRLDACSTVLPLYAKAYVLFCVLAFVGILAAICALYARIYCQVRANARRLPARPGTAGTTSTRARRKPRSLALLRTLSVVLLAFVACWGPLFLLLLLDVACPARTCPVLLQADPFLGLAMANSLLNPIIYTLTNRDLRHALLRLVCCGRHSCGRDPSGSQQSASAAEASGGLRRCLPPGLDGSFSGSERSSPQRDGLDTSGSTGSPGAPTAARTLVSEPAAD

EC50 [1] [nM] | EC50 [2] [nM] | EC50 [3] [nM] | Structure (SMILES)
> 1000 | < 1000 | 1000 to 10000 | CCOc1ccc(COc2ccc3c(c2)CC2(C3)CN(CC3(C(=O)O)CC3)C2)c(Cl)c1 [Example 32, 1-((5′-((2-chloro-4-ethoxybenzyl)oxy)-1′,3′-dihydrospiro[azetidine-3,2′-inden]-1-yl)methyl)cyclopropanecarboxylic acid]
> 1000 | < 1000 | 1000 to 10000 | O=C(O)C1(CN2CC3(Cc4ccc(OCc5ccc(Cl)cc5)cc4C3)C2)CC1 [Example 33, 1-((5′-((4-chlorobenzyl)oxy)-1′,3′-dihydrospiro[azetidine-3,2′-inden]-1-yl)methyl)cyclopropanecarboxylic acid]
> 1000 | < 1000 | 1000 to 10000 | O=C(O)C1(CN2CC3(Cc4ccc(OCc5c(F)cccc5Cl)cc4C3)C2)CC1 [Example 34, 1-((5′-((2-chloro-6-fluorobenzyl)oxy)-1′,3′-dihydrospiro[azetidine-3,2′-inden]-1-yl)methyl)cyclopropanecarboxylic acid compound with 2,2,2-trifluoroacetic acid (1:1)]
> 1000 | < 1000 | 1000 to 10000 | O=C(O)C1(CN2CC3(Cc4ccc(OCc5cc(Cl)ccc5Cl)cc4C3)C2)CC1 [Example 36, 1-((5′-((2,5-dichlorobenzyl)oxy)-1′,3′-dihydrospiro[azetidine-3,2′-inden]-1-yl)methyl)cyclopropanecarboxylic acid compound with acetic acid (1:1)]
> 1000 | < 1000 | 1000 to 10000 | O=C(O)C1(CN2CC3(Cc4ccc(OCc5c(F)cccc5F)cc4C3)C2)CC1 [Example 37, 1-((5′-((2,6-difluorobenzyl)oxy)-1′,3′-dihydrospiro[azetidine-3,2′-inden]-1-yl)methyl)cyclopropanecarboxylic acid compound with 2,2,2-trifluoroacetic acid (1:1)]
> 1000 | < 1000 | 1000 to 10000 | COc1ccc(COc2ccc3c(c2)CC2(C3)CN(CC3(C(=O)O)CC3)C2)c(Cl)c1 [Example 40, 1-((5′-((2-chloro-4-methoxybenzyl)oxy)-1′,3′-dihydrospiro[azetidine-3,2′-inden]-1-yl)methyl)cyclopropanecarboxylic acid]
> 1000 | < 1000 | 1000 to 10000 | O=C(O)C1(CN2CC3(Cc4ccc(OCc5ccccc5C(F)(F)F)cc4C3)C2)CC1 [Example 41, 1-((5′-((2-(trifluoromethyl)benzyl)oxy)-1′,3′-dihydrospiro[azetidine-3,2′-inden]-1-yl)methyl)cyclopropanecarboxylic acid compound with 2,2,2-trifluoroacetic acid (1:1)]
> 1000 | < 1000 | ≤ 10 | O=C(O)C1(CN2CC3(Cc4ccc(OCc5c(F)cccc5C(F)(F)F)cc4C3)C2)CC1 [Example 49, 1-((5′-((2-fluoro-6-(trifluoromethyl)benzyl)oxy)-1′,3′-dihydrospiro[azetidine-3,2′-inden]-1-yl)methyl)cyclopropanecarboxylic acid]
> 1000 | < 1000 | 100 to 1000 | O=C(O)C1(CN2CC3(Cc4ccc(-c5ccc(OCc6ccccc6)cc5)cc4C3)C2)CC1 [Example 53, 1-((5′-(4-(benzyloxy)phenyl)-1′,3′-dihydrospiro[azetidine-3,2′-inden]-1-yl)methyl)cyclopropanecarboxylic acid]
> 1000 | < 1000 | 1000 to 10000 | O=C(O)C1(CN2CC3(Cc4ccc(OCCc5ccccc5)cc4C3)C2)CC1 [Example 54, 1-((5′-phenethoxy-1′,3′-dihydrospiro[azetidine-3,2′-inden]-1-yl)methyl)cyclopropanecarboxylic acid]

Continued, molecule first:

Structure (SMILES) | EC50 [1] [nM] | EC50 [2] [nM] | EC50 [3] [nM]
CCOc1ccc(COc2ccc3c(c2)CC2(C3)CN(CC3(C(=O)O)CC3)C2)cc1 [Example 35, 1-((5′-((4-ethoxybenzyl)oxy)-1′,3′-dihydrospiro[azetidine-3,2′-inden]-1-yl)methyl)cyclopropanecarboxylic acid] | > 1000 | < 1000 | 1000 to 10000
O=C(O)C1(CN2CC3(Cc4ccc(OCc5ccc(Cl)cc5Cl)cc4C3)C2)CC1 [Example 38, 1-((5′-((2,4-dichlorobenzyl)oxy)-1′,3′-dihydrospiro[azetidine-3,2′-inden]-1-yl)methyl)cyclopropanecarboxylic acid] | > 1000 | < 1000 | 1000 to 10000
Cc1cccc(F)c1COc1ccc2c(c1)CC1(C2)CN(CC2(C(=O)O)CC2)C1 [Example 42, 1-((5′-((2-fluoro-6-methylbenzyl)oxy)-1′,3′-dihydrospiro[azetidine-3,2′-inden]-1-yl)methyl)cyclopropanecarboxylic acid compound with 2,2,2-trifluoroacetic acid (1:1)] | > 1000 | < 1000 | 100 to 1000
O=C(O)C1(CN2CC3(Cc4ccc(OCc5cc(F)ccc5C(F)(F)F)cc4C3)C2)CC1 [Example 43, 1-((5′-((5-fluoro-2-(trifluoromethyl)benzyl)oxy)-1′,3′-dihydrospiro[azetidine-3,2′-inden]-1-yl)methyl)cyclopropanecarboxylic acid Compound with 2,2,2-trifluoroacetic acid (1:1)] | > 1000 | < 1000 | 1000 to 10000
O=C(O)C1(CN2CC3(Cc4ccc(OCc5c(Cl)cccc5C(F)(F)F)cc4C3)C2)CC1 [Example 47, 1-((5′-((2-chloro-6-(trifluoromethyl)benzyl)oxy)-1′,3′-dihydrospiro[azetidine-3,2′-inden]-1-yl)methyl)cyclopropanecarboxylic acid Compound with 2,2,2-trifluoroacetic acid (1:1)] | > 1000 | < 1000 | ≤ 10
CCc1cccc(F)c1COc1ccc2c(c1)CC1(C2)CN(CC2(C(=O)O)CC2)C1 [Example 48, 1-((5′-((2-ethyl-6-fluorobenzyl)oxy)-1′,3′-dihydrospiro[azetidine-3,2′-inden]-1-yl)methyl)cyclopropanecarboxylic acid] | > 1000 | < 1000 | ≤ 10
O=C(O)C1(CN2CC3(Cc4ccc(OCCc5ccc(Cl)cc5)cc4C3)C2)CC1 [Example 55, 1-((5′-(4-chlorophenethoxy)-1′,3′-dihydrospiro[azetidine-3,2′-inden]-1-yl)methyl)cyclopropanecarboxylic acid] | > 1000 | < 1000 | 1000 to 10000
O=C(O)C1(CN2CC3(Cc4ccc(OCCc5ccccc5C(F)(F)F)cc4C3)C2)CC1 [Example 56, 1-((5′-(2-(trifluoromethyl)phenethoxy)-1′,3′-dihydrospiro[azetidine-3,2′-inden]-1-yl)methyl)cyclopropanecarboxylic acid] | > 1000 | < 1000 | 10 to 100
